Structures can show the parent of a compound that is named as a salt.
The molecules below were run against Arachidonate 5-lipoxygenase (Rattus norvegicus) (assay: Evaluated for inhibitory activity against RBL-1 cell 5-lipoxygenase in rat).

Row | IC50 [nM] | SMILES
1 | 820 | Cc1cc(OCCN2CCN(C(c3ccccc3)c3ccccc3)CC2)c(C)c(C)c1O [4-[2-(4-Benzhydryl-piperazin-1-yl)-ethoxy]-2,3,6-trimethyl-phenol; hydrochloride]
2 | 426 | Cc1cc(OCCCN2CCN(C(c3ccccc3)c3ccccc3)CC2)c(C)c(C)c1O [4-[3-(4-Benzhydryl-piperazin-1-yl)-propoxy]-2,3,6-trimethyl-phenol; hydrochloride]
3 | 1060 | Cc1cc(OCCCCCCCCN2CCN(C(c3ccccc3)c3ccccc3)CC2)c(C)c(C)c1O [4-[8-(4-Benzhydryl-piperazin-1-yl)-octyloxy]-2,3,6-trimethyl-phenol; hydrochloride]

Row | SMILES | IC50 [nM]
4 | Cc1cc(OCCCCN2CCN(C(c3ccccc3)c3ccccc3)CC2)c(C)c(C)c1O [4-[4-(4-Benzhydryl-piperazin-1-yl)-butoxy]-2,3,6-trimethyl-phenol; hydrochloride] | 358
